According to patent publication EP1007530B1, “6-O-SUBSTITUTED ERYTHROMYCIN COMPOUNDS AND METHOD FOR MAKING SAME” (ABBOTT LABORATORIES, priority 1996, dated 1997):

Key:
Assay in all cases: In vitro assay of antibacterial activity (agar dilution MIC)
Assay type in all cases: cell-based
[1] = test system: Staphylococcus aureus NCTC10649M; conditions: BHI agar, 35-37 °C, 20 to 24 hours, unit assumed
Method in brief: (§1)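 Test compound was mixed at successive dilutions into Brain Heart Infusion agar. Organisms were then applied with a replicator block at 1:100 dilution, or 1:10 for slow growers like Streptococcus. Plates were incubated 20 to 24 hours at 35-37 °C and inspected for growth.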

[2] = test system: Escherichia coli H560; conditions: BHI agar, 35-37 °C, 20 to 24 hours, unit assumed
Method in brief: as §1

[3] = test system: Streptococcus pyogenes EES61; conditions: BHI agar, 35-37 °C, 20 to 24 hours, unit assumed
Method in brief: as §1

[4] = test system: Pseudomonas aeruginosa K799/WT; conditions: BHI agar, 35-37 °C, 20 to 24 hours, unit assumed
Method in brief: as §1

[5] = test system: Pseudomonas aeruginosa BMH10; conditions: BHI agar, 35-37 °C, 20 to 24 hours, in µg/mL (unit assumed)
Method in brief: as §1

[6] = test system: Nocarrdia asteroides ATCC 9970; conditions: BHI agar, 35-37 °C, 20 to 24 hours, unit assumed
Method in brief: as §1

[7] = test system: Pseudomonas aeruginosa DPHD-5263; conditions: BHI agar, 35-37 °C, 20 to 24 hours, in µg/mL (unit assumed)
Method in brief: as §1

[8] = test system: Staphylococcus epidermidis 3519; conditions: BHI agar, 35-37 °C, 20 to 24 hours, unit assumed
Method in brief: as §1

[9] = test system: Streptococcus pyogenes PIU 2548; conditions: BHI agar, 35-37 °C, 20 to 24 hours, unit assumed
Method in brief: as §1

[10] = test system: Mycobacterium smegmatis ATCC 114; conditions: BHI agar, 35-37 °C, 20 to 24 hours, unit assumed
Method in brief: as §1

[11] = test system: Enterococcus faecium ATCC 8043; conditions: BHI agar, 35-37 °C, 20 to 24 hours, unit assumed
Method in brief: as §1

[12] = test system: Staphylococcus aureus CMX 642A; conditions: BHI agar, 35-37 °C, 20 to 24 hours, unit assumed
Method in brief: as §1

[13] = test system: Streptococcus agalactiae CMX 508; conditions: BHI agar, 35-37 °C, 20 to 24 hours, unit assumed
Method in brief: as §1

[14] = test system: Streptococcus bovis A-5169; conditions: BHI agar, 35-37 °C, 20 to 24 hours, unit assumed
Method in brief: as §1

[15] = test system: Klebsiella pneumoniae ATCC 8045; conditions: BHI agar, 35-37 °C, 20 to 24 hours, unit assumed
Method in brief: as §1

[16] = test system: Micrococcus luteus ATCC 9341; conditions: BHI agar, 35-37 °C, 20 to 24 hours, unit assumed
Method in brief: as §1

[17] = test system: Staphylococcus aureus ATCC 6538P; conditions: BHI agar, 35-37 °C, 20 to 24 hours, unit assumed
Method in brief: as §1

[18] = test system: Pseudomonas aeruginosa 5007; conditions: BHI agar, 35-37 °C, 20 to 24 hours, unit assumed
Method in brief: as §1

[19] = test system: Staphylococcus aureus A-5278; conditions: BHI agar, 35-37 °C, 20 to 24 hours, unit assumed
Method in brief: as §1

[20] = test system: Pseudomonas aeruginosa K799/61; conditions: BHI agar, 35-37 °C, 20 to 24 hours, unit assumed
Method in brief: as §1

[21] = test system: Escherichia coli DC-2; conditions: BHI agar, 35-37 °C, 20 to 24 hours, unit assumed
Method in brief: as §1

[22] = test system: Staphylococcus aureus 1775; conditions: BHI agar, 35-37 °C, 20 to 24 hours, unit assumed
Method in brief: as §1

[23] = test system: Escherichia coli JUHL; conditions: BHI agar, 35-37 °C, 20 to 24 hours, in µg/mL (unit assumed)
Method in brief: as §1

[24] = test system: Providencia struartii CMX 640; conditions: BHI agar, 35-37 °C, 20 to 24 hours, unit assumed
Method in brief: as §1

[25] = test system: Enterobacter aerogenes ATCC 13048; conditions: BHI agar, 35-37 °C, 20 to 24 hours, unit assumed
Method in brief: as §1

[26] = test system: Staphylococcus aureus CMX 553; conditions: BHI agar, 35-37 °C, 20 to 24 hours, unit assumed
Method in brief: as §1

[27] = test system: Candida albicans CCH 442; conditions: BHI agar, 35-37 °C, 20 to 24 hours, unit assumed
Method in brief: as §1

[28] = test system: Streptococcus pyogenes 930; conditions: BHI agar, 35-37 °C, 20 to 24 hours, unit assumed
Method in brief: as §1

[29] = test system: Escherichia coli SS; conditions: BHI agar, 35-37 °C, 20 to 24 hours, unit assumed
Method in brief: as §1

[30] = test system: Micrococcus luteus ATCC 4698; conditions: BHI agar, 35-37 °C, 20 to 24 hours, unit assumed
Method in brief: as §1

[31] = test system: Escherichia coli KNK 437; conditions: BHI agar, 35-37 °C, 20 to 24 hours, unit assumed
Method in brief: as §1

[32] = test system: Pseudomonas aeruginosa DPHD-2862; conditions: BHI agar, 35-37 °C, 20 to 24 hours, unit assumed
Method in brief: as §1

[33] = test system: Pseudomonas capacia 2961; conditions: BHI agar, 35-37 °C, 20 to 24 hours, in µg/mL (unit assumed)
Method in brief: as §1

[34] = test system: Actinetobacter calcoaceticus CMX 669; conditions: BHI agar, 35-37 °C, 20 to 24 hours, unit assumed
[35] = test system: Staphylococcus aureus A5177; conditions: BHI agar, 35-37 °C, 20 to 24 hours, unit assumed

## CC[C@H]1OC(=O)[C@H](C)[C@@H](O[C@H]2C[C@@](C)(OC)[C@@H](O)[C@H](C)O2)[C@H](C)[C@@H](O[C@@H]2O[C@H](C)C[C@H](N(C)C)[C@H]2O)[C@](C)(OCC=O)C[C@@H](C)C(=O)[C@H](C)[C@@H](O)[C@]1(C)O [Example 8, Compound of Formula (X): X is =O, R is 2-oxoethyl]
[1]
  MIC: 0.78 mg/L
[2]
  MIC: 50 mg/L
[3]
  MIC: 0.1 mg/L
[4]
  MIC: > 100 mg/L
[5]
  MIC: > 100
[6]
  MIC: 0.39 mg/L
[7]
  MIC: > 100
[8]
  MIC: 0.78 mg/L
[9]
  MIC: 25 mg/L
[10]
  MIC: 6.2 mg/L
[11]
  MIC: 0.39 mg/L
[12]
  MIC: 0.78 mg/L
[13]
  MIC: 0.39 mg/L
[14]
  MIC: 0.2 mg/L
[15]
  MIC: > 100 mg/L
[16]
  MIC: 0.1 mg/L
[17]
  MIC: 0.78 mg/L
[18]
  MIC: > 100 mg/L
[19]
  MIC: > 100 mg/L
[20]
  MIC: 3.1 mg/L
[21]
  MIC: > 100 mg/L
[22]
  MIC: > 100 mg/L
[23]
  MIC: 100
[24]
  MIC: > 100 mg/L
[25]
  MIC: > 100 mg/L
[26]
  MIC: 0.78 mg/L
[27]
  MIC: > 100 mg/L
[28]
  MIC: > 100 mg/L
[29]
  MIC: 1.56 mg/L
[30]
  MIC: 1.56 mg/L
[31]
  MIC: > 100 mg/L
[32]
  MIC: > 100 mg/L
[33]
  MIC: > 100
[34]
  MIC: 50 mg/L
[35]
  MIC: 12.5 mg/L
